Active and inactive are the calls of the source.
Legend:
3T3-L1 [1] = test: Cytotoxicity against mouse 3T3-L1 pre-adipocyte cells assessed as reduction in cell viability at 20 uM incubated for 48 hrs by MTT assay; format: toxicity, cell-based; details: 3t3-l1, 48 h
3T3-L1 [2] = test: Inhibition of MDI-cocktail induced adipogenic differentiation in mouse 3T3-L1 pre-adipocyte cells assessed as reduction in lipid bound stain absorbance at 0.5 to 25 uM by Oil Red O staining based microscopic analysis; format: functional, cell-based; details: dose 0.5-25 µM
3T3-L1 [3] = test: Inhibition of MDI-cocktail induced adipogenic differentiation in mouse 3T3-L1 pre-adipocyte cells assessed as reduction in C/EBPalpha protein expression at 0.5 to 5 uM by Western blot analysis; format: functional, cell-based; details: dose 0.5-5 µM
3T3-L1 [4] = test: Inhibition of MDI-cocktail induced adipogenic differentiation in mouse 3T3-L1 pre-adipocyte cells assessed as increase in AMPK phosphorylation at Thr172 residue by Western blot analysis; format: functional, cell-based; details: dose 0.5-5 µM
3T3-L1 [5] = test: Inhibition of MDI-cocktail induced adipogenic differentiation in mouse 3T3-L1 pre-adipocyte cells assessed as increase in ACC phosphorylation at Ser79 residue by Western blot analysis; format: functional, cell-based; details: dose 0.5-5 µM
3T3-L1 [6] = test: Inhibition of MDI-cocktail induced adipogenic differentiation in mouse 3T3-L1 pre-adipocyte cells assessed as reduction in PPARgamma gene expression at 5 uM by qRT-PCR analysis; format: functional, cell-based
3T3-L1 [7] = test: Inhibition of MDI-cocktail induced adipogenic differentiation in mouse 3T3-L1 pre-adipocyte cells assessed as reduction in CEBPalpha gene expression at 5 uM by qRT-PCR analysis; format: functional, cell-based
3T3-L1 [8] = test: Inhibition of MDI-cocktail induced adipogenic differentiation in mouse 3T3-L1 pre-adipocyte cells assessed as reduction in FASN gene expression at 5 uM by qRT-PCR analysis; format: functional, cell-based
3T3-L1 [9] = test: Anti-adipogenic activity in MDI-cocktail differentiated mouse 3T3-L1 pre-adipocyte cells assessed as reduction in adipogenic differentiation at 5 uM measured after 0 to 5 days by Oil Red O staining based microscopic analysis; format: functional, cell-based; details: time 0-5 day
3T3-L1 [10] = test: Anti-adipogenic activity in MDI-cocktail differentiated mouse 3T3-L1 pre-adipocyte cells assessed as reduction in adipogenic differentiation at 5 uM measured after 0 to 7 days by Oil Red O staining based microscopic analysis; format: functional, cell-based; details: time 0-7 day
C3H 10T1/2 [11] = test: Anti-adipogenic activity in MDI-cocktail differentiated mouse C3H 10T1/2 cells assessed as reduction in adipogenic differentiation at 5 uM measured after 0 to 5 days by Oil Red O staining based microscopic analysis; format: functional, cell-based; details: time 0-5 day
C3H 10T1/2 [12] = test: Anti-adipogenic activity in MDI-cocktail differentiated mouse C3H 10T1/2 cells assessed as reduction in adipogenic differentiation at 5 uM measured after 0 to 7 days by Oil Red O staining based microscopic analysis; format: functional, cell-based; details: time 0-7 day
C3H 10T1/2 [13] = test: Anti-adipogenic activity in MDI-cocktail differentiated mouse C3H 10T1/2 cells assessed as reduction in adipogenic differentiation at 5 uM measured after 3 to 5 days by Oil Red O staining based microscopic analysis; format: functional, cell-based; details: time 3-5 day
C3H 10T1/2 [14] = test: Anti-adipogenic activity in MDI-cocktail differentiated mouse C3H 10T1/2 cells assessed as reduction in adipogenic differentiation at 5 uM measured after 3 to 7 days by Oil Red O staining based microscopic analysis; format: functional, cell-based; details: time 3-7 day
C3H 10T1/2 [15] = test: Anti-adipogenic activity in MDI-cocktail differentiated mouse C3H 10T1/2 cells assessed as reduction in adipogenic differentiation at 5 uM measured after 5 to 7 days by Oil Red O staining based microscopic analysis; format: functional, cell-based; details: time 5-7 day
3T3-L1 [16] = test: Anti-adipogenic activity in MDI-cocktail differentiated mouse 3T3-L1 pre-adipocyte cells assessed as reduction in FASN protein expression at 5 uM measured for 3 to 7 days by immunoblotting analysis; format: functional, cell-based; details: time 3-7 day
3T3-L1 [17] = test: Anti-adipogenic activity in MDI-cocktail differentiated mouse 3T3-L1 pre-adipocyte cells assessed as increase in AMPK phosphorylation at Thr172 residue at 5 uM measured for 3 to 7 days by immunoblotting analysis; format: functional, cell-based; details: time 3-7 day
3T3-L1 [18] = test: Induction of cell cycle arrest in MDI-cocktail differentiated mouse 3T3-L1 pre-adipocyte cells assessed as accumulation of cells at G1 phase at 3 to 5 uM incubated for 16 hrs by propidium iodide staining based flow cytometry analysis; format: functional; details: dose 3-5 µM
3T3-L1 [19] = test: Induction of cell cycle arrest in MDI-cocktail differentiated mouse 3T3-L1 pre-adipocyte cells assessed as reduction in cyclin D3 protein expression at 5 uM measured after 16 to 24 hrs by immunoblotting analysis; format: functional, cell-based; details: time 16-24 hrs
3T3-L1 [20] = test: Inhibition of MDI-cocktail induced mTOR phosphorylation at Ser2448 residue in mouse 3T3-L1 pre-adipocyte cells at 5 uM by immunoblotting analysis; format: cell-based
3T3-L1 [21] = test: Induction of mitochondrial respiration in MDI-cocktail differentiated mouse 3T3-L1 pre-adipocyte cells assessed as increase in oxygen consumption rate at 5 uM incubated for 72 hrs in presence of oligomycin by Seahorse XFp flux analyzer; format: functional, cell-based
3T3-L1 [22] = test: Induction of mitochondrial respiration in MDI-cocktail differentiated mouse 3T3-L1 pre-adipocyte cells assessed as increase in oxygen consumption rate at 5 uM incubated for 72 hrs in presence of rotenone/antimycin A mixture by Seahorse XFp flux analyzer; format: functional, cell-based
3T3-L1 [23] = test: Induction of ATP production during early phase in MDI-cocktail differentiated mouse 3T3-L1 pre-adipocyte cells 5 uM incubated for 72 hrs by Seahorse XFp flux analyzer; format: functional, cell-based
3T3-L1 [24] = test: Activation of AMPK in mouse 3T3-L1 mature adipocytes assessed as increase in AMPK phosphorylation at Thr172 residue incubated for 24 hrs by Western blot analysis; format: cell-based; details: filed as activator, dose 1-5 µM
3T3-L1 [25] = test: Activation of AMPK pathway in mouse 3T3-L1 mature adipocyte cells assessed as reversal of 6-(4-(2-(piperidin-1-yl)ethoxy)phenyl)-3-(pyridin-4yl)pyrazolo[1,5-a]pyrimidine induced AMPK inhibition at 5 uM incubated for 24 hrs by immunoblotting analysis; format: cell-based; details: filed as activator
3T3-L1 [26] = test: Upregulation of CV-ATP5A protein expression in mouse 3T3-L1 mature adipocytes at 1 to 5 uM incubated for 24 hrs by Western blot analysis; format: functional, cell-based; details: dose 1-5 µM
3T3-L1 [27] = test: Upregulation of CIV-MTCO1 protein expression in mouse 3T3-L1 mature adipocytes at 1 to 5 uM incubated for 24 hrs by Western blot analysis; format: functional, cell-based; details: dose 1-5 µM
Syrian golden hamster [28] = test: Anti-obesity activity in high-fat diet induced Syrian golden hamster model assessed as rescue of normal liver weight at 25 to 50 mg/kg, po administered for 7 days; format: functional, organism-based; details: Mesocricetus auratus, dose 25-50 mg/kg, time 7.0 day
Syrian golden hamster [29] = test: Anti-dyslipidaemic activity in high-fat diet induced Syrian golden hamster model assessed as assessed as reduction in serum triglyceride level at 25 to 50 mg/kg, po administered for 7 days; format: functional, organism-based; details: Mesocricetus auratus, dose 25-50 mg/kg, time 7.0 day
Syrian golden hamster [30] = test: Anti-dyslipidaemic activity in high-fat diet induced Syrian golden hamster model assessed as assessed as reduction in serum LDL-cholesterol level at 25 to 50 mg/kg, po administered for 7 days; format: functional, organism-based; details: Mesocricetus auratus, dose 25-50 mg/kg, time 7.0 day
Syrian golden hamster [31] = test: Anti-dyslipidaemic activity in high-fat diet induced Syrian golden hamster model assessed as assessed as increase in serum HDL level at 25 to 50 mg/kg, po administered for 7 days; format: functional, organism-based; details: Mesocricetus auratus, dose 25-50 mg/kg, time 7.0 day
Syrian golden hamster [32] = test: Hepatoprotective activity in high-fat diet induced Syrian golden hamster model assessed as reduction in serum ALT level at 25 to 50 mg/kg, po administered for 7 days; format: functional, organism-based; details: Mesocricetus auratus, dose 25-50 mg/kg, time 7.0 day

Cc1ccc(-c2cnc(-c3ccc[n+](Cc4cccc(C)c4)c3)o2)cc1.[Br-]
Non-Toxic: Activity (3T3-L1 [1])
active: inhibition (3T3-L1 [2]) | inhibition (3T3-L1 [3]) | inhibition (3T3-L1 [4]) Dose-Dependent Effect | inhibition (3T3-L1 [5]) Dose-Dependent Effect | inhibition (3T3-L1 [6]) | inhibition (3T3-L1 [7]) | inhibition (3T3-L1 [8]) | Activity (3T3-L1 [9]) | Activity (3T3-L1 [10]) | Activity (C3H 10T1/2 [11]) | Activity (C3H 10T1/2 [12]) | Activity (C3H 10T1/2 [13]) | Activity (C3H 10T1/2 [14]) | Activity (C3H 10T1/2 [15]) | Activity (3T3-L1 [16]) | Activity (3T3-L1 [17]) | Activity (3T3-L1 [18]) | Activity (3T3-L1 [19]) | inhibition (3T3-L1 [20]) | Activity (3T3-L1 [21]) | Activity (3T3-L1 [22]) | Activity (3T3-L1 [23]) | Activity (3T3-L1 [24]) Dose-Dependent Effect | Activity (3T3-L1 [25]) | Activity (3T3-L1 [26]) | Activity (3T3-L1 [27]) | Activity (Syrian golden hamster [29]) | Activity (Syrian golden hamster [30]) | Activity (Syrian golden hamster [32])
inactive: Activity (Syrian golden hamster [28]) | Activity (Syrian golden hamster [31])

Reference: ChEMBL document CHEMBL5634151, “Anti-adipogenic action of a novel oxazole derivative through activation of AMPK pathway” (Eur J Med Chem, 2023)
